Measurements: patent US20080051387A1, “TETRAHYDROPYRIDO[3,4-D]PYRIMIDINES AND RELATED ANALOGUES” (priority 2006, published 2008)

target: T1, chimeric human H3 receptor (Homo sapiens, UniProt Q9Y5N1); experiment: Chimeric human H3 receptor screening GTP binding assay (inhibition of histamine-stimulated GTP-gamma35S binding, Example 8); type: biochemical; settings: 1 h; assay described in Example 8; symbol "!" in column headed Ki; read-out: Ki ("!": percent inhibition of agonist-induced GTP-gammaS binding to H3)
T1 construct: rat Galpha-i2 (Gnai2, rat); made in house; host or cells: Sf9 insect cells (baculovirus); P2 membranes
Procedure, shortened: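 Compound tested at 4 μM against 1 μM histamine stimulation; 125 pM GTP-gamma35S binding measured by filtration and scintillation after 60 min at room temperature. Membranes from Sf9 cells expressing chimeric human H3 plus G-protein subunits, in Tris pH 7.4/NaCl/MgCl2/GDP buffer; values are % inhibition after nonspecific subtraction.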

T1 sequence (Q9Y5N1 with tags, fused parts or gaps): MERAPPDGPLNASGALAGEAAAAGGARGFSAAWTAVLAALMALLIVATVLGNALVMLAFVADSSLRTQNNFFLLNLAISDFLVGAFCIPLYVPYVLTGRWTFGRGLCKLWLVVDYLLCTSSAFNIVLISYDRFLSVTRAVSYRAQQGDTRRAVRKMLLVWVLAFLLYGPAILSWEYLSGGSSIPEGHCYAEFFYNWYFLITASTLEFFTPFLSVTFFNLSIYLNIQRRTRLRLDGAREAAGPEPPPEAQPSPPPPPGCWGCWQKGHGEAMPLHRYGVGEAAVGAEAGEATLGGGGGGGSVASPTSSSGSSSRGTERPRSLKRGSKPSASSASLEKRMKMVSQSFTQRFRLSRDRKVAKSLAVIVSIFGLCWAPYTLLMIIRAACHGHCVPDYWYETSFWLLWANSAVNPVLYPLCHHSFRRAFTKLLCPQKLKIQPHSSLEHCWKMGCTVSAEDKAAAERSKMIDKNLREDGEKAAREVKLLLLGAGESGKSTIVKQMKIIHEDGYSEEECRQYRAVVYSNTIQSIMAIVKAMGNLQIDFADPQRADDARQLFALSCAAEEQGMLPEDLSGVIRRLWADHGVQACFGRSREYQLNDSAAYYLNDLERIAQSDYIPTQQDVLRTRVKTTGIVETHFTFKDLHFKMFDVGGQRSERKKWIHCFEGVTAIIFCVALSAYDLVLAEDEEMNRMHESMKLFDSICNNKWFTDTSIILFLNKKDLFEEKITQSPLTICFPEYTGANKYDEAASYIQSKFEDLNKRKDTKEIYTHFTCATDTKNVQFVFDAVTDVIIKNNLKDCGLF

Inhibition at 4 µM, ≥ 90%:
O=C(c1cc(-c2ccc(Cl)cc2)oc1C(F)(F)F)N1CCc2cnc(N3CCN(C4CCC4)CC3)nc2CC1 [Compound 470, 7-[5-(4-chlorophenyl)-2-(trifluoromethyl)-3-furoyl]-2-(4-cyclobutylpiperazin-1-yl)-6,7,8,9-tetrahydro-5H-pyrimido[4,5-d]azepine]
COc1ncc(Cl)cc1C(=O)N1CCc2cnc(N3CCN(C4CCC4)CC3)nc2CC1 [Compound 544, 7-[(5-chloro-2-methoxypyridin-3-yl)carbonyl]-2-(4-cyclobutylpiperazin-1-yl)-6,7,8,9-tetrahydro-5H-pyrimido[4,5-d]azepine]
O=C(c1c(-c2ccccc2)nnc2ccccc12)N1CCc2cnc(N3CCN(C4CCC4)CC3)nc2CC1 [Compound 510, 2-(4-cyclobutylpiperazin-1-yl)-7-[(3-phenylcinnolin-4-yl)carbonyl]-6,7,8,9-tetrahydro-5H-pyrimido[4,5-d]azepine]
Cc1ccc(C(=O)N2CCc3cnc(N4CCN(C5CCC5)CC4)nc3CC2)c(C)c1 [Compound 407, 2-(4-cyclobutylpiperazin-1-yl)-7-(2,4-dimethylbenzoyl)-6,7,8,9-tetrahydro-5H-pyrimido[4,5-d]azepine]
CNc1ccc(C(=O)N2CCc3cnc(N4CCN(C5CCC5)CC4)nc3CC2)cc1 [Compound 535, 4-{[2-(4-cyclobutylpiperazin-1-yl)-5,6,8,9-tetrahydro-7H-pyrimido[4,5-d]azepin-7-yl]carbonyl}-N-methylaniline]
CCOc1ccsc1C(=O)N1CCc2cnc(N3CCN(C4CCC4)CC3)nc2CC1 [Compound 447, 2-(4-cyclobutylpiperazin-1-yl)-7-[(3-ethoxy-2-thienyl)carbonyl]-6,7,8,9-tetrahydro-5H-pyrimido[4,5-d]azepine]
CSc1ncc(Cl)c(C(=O)N2CCc3cnc(N4CCN(C5CCC5)CC4)nc3CC2)n1 [Compound 479, 7-{[5-chloro-2-(methylthio)pyrimidin-4-yl]carbonyl}-2-(4-cyclobutylpiperazin-1-yl)-6,7,8,9-tetrahydro-5H-pyrimido[4,5-d]azepine]
Cc1cc(C(=O)N2CCc3cnc(N4CCN(C5CCC5)CC4)nc3CC2)ccc1Cl [Compound 395, 7-(4-chloro-3-methylbenzoyl)-2-(4-cyclobutylpiperazin-1-yl)-6,7,8,9-tetrahydro-5H-pyrimido[4,5-d]azepine]
COc1ccc(/C=C/C(=O)N2CCc3cnc(N4CCN(C5CCC5)CC4)nc3CC2)cc1 [Compound 558, 2-(4-cyclobutylpiperazin-1-yl)-7-[(2E)-3-(4-methoxyphenyl)prop-2-enoyl]-6,7,8,9-tetrahydro-5H-pyrimido[4,5-d]azepine]
COc1ccc(Br)c(C(=O)N2CCc3cnc(N4CCN(C5CCC5)CC4)nc3CC2)c1 [Compound 413, 7-(2-bromo-5-methoxybenzoyl)-2-(4-cyclobutylpiperazin-1-yl)-6,7,8,9-tetrahydro-5H-pyrimido[4,5-d]azepine]

same assay, conditions: 1 h; assay of Example 8; symbol "!" in column headed Ki; read-out: percent inhibition of agonist-induced GTP-gammaS binding to H3

Inhibition at 4 µM, ≥ 90%:
COc1ccc(C(=O)N2CCc3cnc(N4CCN(C5CCC5)CC4)nc3CC2)cc1 [Compound 191, 2-(4-cyclobutylpiperazin-1-yl)-7-(4-methoxybenzoyl)-6,7,8,9-tetrahydro-5H-pyrimido[4,5-d]azepine]
CCC(C)C(=O)N1CCc2cnc(N3CCN(C4CCC4)CC3)nc2CC1 (stereo not shown) [Compound 223, 2-(4-cyclobutylpiperazin-1-yl)-7-(2-methylbutanoyl)-6,7,8,9-tetrahydro-5H-pyrimido[4,5-d]azepine]
O=C(COc1ccccc1Cl)N1CCc2cnc(N3CCN(C4CCC4)CC3)nc2CC1 [Compound 320, 7-[(2-chlorophenoxy)acetyl]-2-(4-cyclobutylpiperazin-1-yl)-6,7,8,9-tetrahydro-5H-pyrimido[4,5-d]azepine]
CC(Oc1cccc(Cl)c1)C(=O)N1CCc2cnc(N3CCN(C4CCC4)CC3)nc2CC1 (stereo not shown) [Compound 340, 7-[2-(3-chlorophenoxy)propanoyl]-2-(4-cyclobutylpiperazin-1-yl)-6,7,8,9-tetrahydro-5H-pyrimido[4,5-d]azepine]
c1cc(N2CCOCC2)ncc1CN1CCc2cnc(N3CCN(C4CCC4)CC3)nc2CC1 [Compound 240, 2-(4-cyclobutylpiperazin-1-yl)-7-[(6-morpholin-4-ylpyridin-3-yl)methyl]-6,7,8,9-tetrahydro-5H-pyrimido[4,5-d]azepine]

same assay, conditions: symbol ! in Ki; test compound 4 μM, 1 μM histamine; read-out: percent inhibition of agonist-induced GTP-gammaS binding to H3

Inhibition at 4 µM, ≥ 90%:
CCCCC(C)N1CCc2c(ncnc2N2CCN(C3CCC3)CC2)C1 (stereo not shown) [Compound 119, 4-(4-cyclobutylpiperazin-1-yl)-7-(1-methylpentyl)-5,6,7,8-tetrahydropyrido[3,4-d]pyrimidine]
CNC(=O)c1ccc(CN2CCc3c(ncnc3N3CCN(C4CCC4)CC3)C2)cc1 [Compound 140, 4-{[4-(4-cyclobutylpiperazin-1-yl)-5,8-dihydropyrido[3,4-d]pyrimidin-7(6H)-yl]methyl}-N-methylbenzamide]
CCC(=O)N1CCc2c(ncnc2N2CCN(C3CCC3)CC2)C1 [Compound 42, 4-(4-cyclobutylpiperazin-1-yl)-7-propionyl-5,6,7,8-tetrahydropyrido[3,4-d]pyrimidine]
c1nc2c(c(N3CCN(C4CCC4)CC3)n1)CCN(CC1CC1)C2 [Compound 89, 4-(4-cyclobutylpiperazin-1-yl)-7-(cyclopropylmethyl)-5,6,7,8-tetrahydropyrido[3,4-d]pyrimidine]
CCCC(C)CN1CCc2nc(N3CCN(C4CCC4)CC3)ncc2C1 (stereo not shown) [Compound 635, 2-(4-cyclobutylpiperazin-1-yl)-6-(2-methylpentyl)-5,6,7,8-tetrahydropyrido[4,3-d]pyrimidine]
Cc1ccc(CN2CCc3ncnc(N4CCN(C5CCC5)CC4)c3CC2)cc1 [Compound 149, 4-(4-cyclobutylpiperazin-1-yl)-7-(4-methylbenzyl)-6,7,8,9-tetrahydro-5H-pyrimido[4,5-d]azepine]
Cn1ccnc1CN1CCc2ncnc(N3CCN(C4CCC4)CC3)c2CC1 [Compound 150, 4-(4-cyclobutylpiperazin-1-yl)-7-[(1-methyl-1H-imidazol-2-yl)methyl]-6,7,8,9-tetrahydro-5H-pyrimido[4,5-d]azepine]
Cc1cccc(CN2CCc3ncnc(N4CCN(C5CCC5)CC4)c3CC2)n1 [Compound 153, 4-(4-cyclobutylpiperazin-1-yl)-7-[(6-methylpyridin-2-yl)methyl]-6,7,8,9-tetrahydro-5H-pyrimido[4,5-d]azepine]
CCn1cncc1CN1CCc2ncnc(N3CCN(C4CCC4)CC3)c2CC1 [Compound 177, 4-(4-cyclobutylpiperazin-1-yl)-7-[(1-ethyl-1H-imidazol-5-yl)methyl]-6,7,8,9-tetrahydro-5H-pyrimido[4,5-d]azepine]
CC(C)CCN1CCc2nc(N3CCN(C4CCC4)CC3)ncc2C1 [Compound 626, 2-(4-cyclobutylpiperazin-1-yl)-6-(3-methylbutyl)-5,6,7,8-tetrahydropyrido[4,3-d]pyrimidine]
